In article PMC10009108, “Design, synthesis and screening of indole acetic acid-based tri-azo moieties as antioxidants, anti-microbial and cytotoxic agents” (Frontiers in Pharmacology, 2023):
In brackets after ≈: the same amount, converted by molar mass.

Legend:
[1] = test system: Aspergillus flavus (FCBP-0064); assay: Antifungal disc diffusion assay; format: cell-based; design: key to Zone of inhibition, A. flavus: --- = no anti-fungal activity; conditions: 20 μg/disc
Procedure: (§1) The antifungal response to these chemical moieties was evaluated through a procedure designated by ([Zahra et al., 2017]). Amphotericin B (4 mg/mL DMSO) is used as + ve control and DMSO as-ve one (5 μL/disc). Sterile SDA-coated plates were used, on which 100 µL of suspension of spores for each strain (previously reaped-in-Tween-20 solution) was spread. Discs of sterile filter paper containing 5 µL of sample solution (4 mg/mL DMSO) were kept on plates and incubated for 2 days at 28°C. Zones of inhibition were recorded.
(§2) The Synthetic compound library was subjected to an antifungal assay using five different strains of Fungai, i.e., Fusarium solani (FCBP-0291), Aspergillus fumigatus (FCBP-66), Aspergillus flavus (FCBP-0064), Aspergillus niger (FCBP-0198) and Mucor species (FCBP-0300). Amphotericin B was the standard drug used. […] The outcomes are concise in Table 5.

resistant E.coli = assay: Antibacterial assay, resistant strains; format: cell-based, Escherichia coli; design: key to Antibacterial activity, resistant E.coli: Activity: Positive = have anti-bacterial activity; --- = no anti-bacterial activity; conditions: 25 μg/mL; resistant strain
Description: (§3) The micro broth dilution method was used to establish the antibacterial potential of test samples against Staphylococcus aureus (ATCC-6538), Bacillus subtilis (ATCC-6633), Escherichia coli (ATCC-25922), Klebsiella pneumoniae (ATCC-1705), and Pseudomonas aeruginosa (ATCC-15442) and for the resistant strains of MRSA Staphylococcus aureus, P. aeruginosa and Escherichia coli. The procedure used is described by ([Sarker et al., 2007]). Bacterial inoculum was formed under aseptic conditions keeping the density near 5 × 10^4 CFU/mL in pre-autoclaved nutrient broth. Test samples of an aliquot of 5 µL were shifted to labeled wells of 96 well plates, and after that addition of 195 µL of nutrient broth; was accomplished. After that, a 2-fold serial dilution of every sample was arranged to get final concentrations of 12.5 μg/mL. Then, with the help of a micropipette, 195 µL of bacterial culture of respective strains was poured into each well; further advancement was incubating of plates for 30 min at the temperature of 37°C. […] Incubation of plates was again carried out at 37°C for 1 day, absorbance was noted, and net change in turbidity was the difference between two values of absorbance.
(§4) Schiff base tri-azo compounds were investigated for antibacterial potential. […] 6.25 μg/mL for 5b and 5g, and the least, Table 4 3.12 μg/mL was for 5f. […] Substituents with electron-withdrawing attributes, e.g., -NO2, -Cl, -OH on the aromatic ring, assert a great impact on the antibacterial activity of synthetic compounds. It is also observed that an increase in the number of -OH groups tend to enhance the activity ([Hosamani and Shingalapur, 2011]). Due to the difference in cell-wall composition of Gram + ve and -ve bacteria, different compounds show different features towards the same micro-organism ([Goszczyn’ska et al., 2015]).

[2] = test system: Staphylococcus aureus (ATCC-6538); assay: Antibacterial assay, micro broth dilution; format: cell-based; design: key: Active = Bacterial activity; --- = no activity; conditions: 25 μg/mL
resistant P. aeruginosa = assay: Antibacterial assay, resistant strains; format: cell-based; design: key to Antibacterial activity, resistant P. aeruginosa: Activity: Positive = have anti-bacterial activity; --- = no anti-bacterial activity; conditions: 25 μg/mL; resistant strain
Description: as §3, §4

in vivo = assay: in vivo
Procedure: The cytotoxic evaluation was accomplished using the decorum designed by ([Khan et al., 2011]). To a plate of 96 wells, artificial seawater and nauplii were added. Test samples were taken in wells (40, 20, 10, 5 μg/mL) after making up the final volume with seawater, the plates were left uncovered under the lamp, and after 24 h, the number of surviving larvae was calculated. For samples having ≥50% mortality, the median lethal conc was calculated using the table curve software, Doxorubicin was used as + ve control, and DMSO was the -ve. The percentage of killed organisms was found using the formula. Percentage Mortality=No of dead shrimps÷Total Number of Shrimps×100
The results of all the experiments were articulated as mean ± SD. Each test was performed in triplicate. TAC assay was analyzed by one-way analysis of variance (ANOVA) following DUNCAN’S test using the statistical package for social sciences 18 and p < 0.05 was considered as significant where appropriate. For samples having ≥50% mortality, the median lethal concentration (LC50) was calculated using the table curve software.
This evaluation test forms the basis for the bioactive scanning of compounds for their potential as anti-cancer moieties, to be investigated on a large scale ([Amanullah et al., 2012]). […] Similarities between Artemia salina and mammalian cells have been reported due to DNA-dependent RNA polymerases ([Birndorf et al., 1975]). These Schiff bases were investigated for their cytotoxic potential. […] Doxorubicin was used as the positive control.

MRSA [3] = assay: Antibacterial assay, resistant strains; format: cell-based; conditions: Staphylococcus aureus, resistant strain
Description: as §3, §4

[4] = test system: Aspergillus fumigatus (FCBP-66); assay: Antifungal disc diffusion assay; format: cell-based; design: key to Zone of inhibition, A. fumigatus: --- = no anti-fungal activity; conditions: 20 μg/disc
Procedure: as §1, §2

[5] = test system: Fusarium solani (FCBP-0291); assay: Antifungal disc diffusion assay; format: cell-based; design: key to Zone of inhibition, F. solani: --- = no anti-fungal activity
Procedure: as §1, §2

MRSA [6] = assay: Antibacterial assay, resistant strains; format: cell-based, Staphylococcus aureus; conditions: 25 μg/mL; resistant strain
[7] = test system: Aspergillus niger (FCBP-0198); assay: Antifungal disc diffusion assay; format: cell-based; design: key to Zone of inhibition, A. niger: --- = no anti-fungal activity; conditions: 20 μg/disc
Procedure: as §1, §2

| SMILES | MIC (MRSA [3]) | Zone of inhibition, A. flavus [1] | Antibacterial activity, resistant E.coli: Activity (resistant E.coli) | Antibacterial activity, S. aureus: Activity [2] | Antibacterial activity, resistant P. aeruginosa: Activity (resistant P. aeruginosa) | LC50 at 24 h (in vivo) | Zone of inhibition, A. fumigatus [4] | Zone of inhibition, F. solani ([5]; 20 μg/disc) | Antibacterial activity, MRSA: Activity (MRSA [6]) | Zone of inhibition, A. niger [7] | antifungal activity against Fusarium solani (in words) [5] | zone of inhibition at 20 µg/disc ([5]; Fusarium solani, 20 μg/disc, read-out: Zone of inhibition, F. solani) |
| --- | --- | --- | --- | --- | --- | --- | --- | --- | --- | --- | --- | --- |
| COc1cccc(C=Nn2c(Cc3c[nH]c4ccccc34)n[nH]c2=S)c1 [Compound 5b] | 12.5 µg/mL (≈ 34.4 µM) | --- | --- | --- | --- | 14.1 µg/mL (≈ 38.9 µM) | --- | --- | Active | --- |  |  |
| Oc1cccc(C=Nn2c(Cc3c[nH]c4ccccc34)n[nH]c2=S)c1 [Compound 5a] | 12.5 µg/mL (≈ 35.8 µM) | --- |  |  |  | 11.2 µg/mL (≈ 31.9 µM) | --- | --- | Active | --- |  |  |
| S=c1[nH]nc(Cc2c[nH]c3ccccc23)n1N=Cc1cccc(Cl)c1 [Compound 5f] | 12.5 µg/mL (≈ 34 µM) | --- | --- | Active | --- | 5.7 µg/mL (≈ 15.5 µM) | --- | --- | Active | --- |  |  |
| COc1cc(C=Nn2c(Cc3c[nH]c4ccccc34)n[nH]c2=S)cc(OC)c1OC [Compound 5g] | 12.5 µg/mL (≈ 29.5 µM) | --- | --- | Active | --- | 18.2 µg/mL (≈ 42.9 µM) | --- | --- | Active | --- |  |  |

Second part, led by results:

| MIC (MRSA [3]) | SMILES | Zone of inhibition, A. flavus [1] | Antibacterial activity, resistant E.coli: Activity (resistant E.coli) | Antibacterial activity, S. aureus: Activity [2] | Antibacterial activity, resistant P. aeruginosa: Activity (resistant P. aeruginosa) | LC50 at 24 h (in vivo) | Zone of inhibition, A. fumigatus [4] | Zone of inhibition, F. solani ([5]; 20 μg/disc) | Antibacterial activity, MRSA: Activity (MRSA [6]) | Zone of inhibition, A. niger [7] | antifungal activity against Fusarium solani (in words) [5] | zone of inhibition at 20 µg/disc ([5]; Fusarium solani, 20 μg/disc, read-out: Zone of inhibition, F. solani) |
| --- | --- | --- | --- | --- | --- | --- | --- | --- | --- | --- | --- | --- |
| 12.5 µg/mL (≈ 33 µM) | O=[N+]([O-])c1ccc(C=Nn2c(Cc3c[nH]c4ccccc34)n[nH]c2=S)cc1 [Compound 5d] | --- | --- | --- | --- | 5.7 µg/mL (≈ 15.1 µM) | --- | --- | Active | --- |  |  |
| 12.5 µg/mL (≈ 34 µM) | S=c1[nH]nc(Cc2c[nH]c3ccccc23)n1N=Cc1ccc(Cl)cc1 [Compound 5c] | --- | --- | --- | --- | 5.7 µg/mL (≈ 15.5 µM) | --- | --- | Active | --- |  |  |
| 12.5 µg/mL (≈ 35.8 µM) | Oc1ccc(C=Nn2c(Cc3c[nH]c4ccccc34)n[nH]c2=S)cc1 [Compound 5e] | --- | --- | --- | --- | 14.1 µg/mL (≈ 40.5 µM) | --- | 6 mm | Active | --- | active | > 6 mm |
